Results reported in PMC3157017 (Theranostics, 2011).

Molecular target: integrin αvβ3 (Homo sapiens, UniProt P05106+P06756)
Assay: Whole-cell integrin αvβ3 competitive displacement assay against ^125I-c
Assay type: binding

`N=C(N)NCCC[C@@H]1NC(=O)[C@H](CCCCNC(=O)CCOCCOCCOCCOCCNC(=O)CN2CCN(CC(=O)O)CCN(CC(=O)O)CCN(CC(=O)O)CC2)NC(=O)[C@@H](Cc2ccccc2)NC(=O)[C@H](CC(=O)O)NC(=O)CNC1=O` [DOTA-P-RGD, DOTA-PEG4-c(RGDfK)] was tested, and the IC50 was 44.3 ± 3.5 nM.
